For 122 compounds, melting point results are on record in a melting point compilation (Tetko et al.).

The structures appear in SMILES notation.

Regarding `Cc1c(N)cc(C(N)=O)cc1F`, the melting point (usually the temperature, or range, at which the solid turns liquid) is 188 to 190 °C.

The compound `Cn1nc(SCC(=O)O)c(=O)n(C)c1=O` yielded a melting point of 185 to 187 °C. As for `O=C(O)c1ccnc(OCC(F)(F)F)c1`, the figure is 109 to 111 °C. Compound `NC(=O)N1CCCC(C(=O)O)C1` (configuration not stated) had a melting point of 181 to 185 °C. The figure for `CC(C)N1C(=O)CNCC1(C)C` is 85 to 87 °C. As for `NC(=O)NC(CC(=O)O)c1cccc(Oc2ccccc2)c1` (configuration not stated), the figure is 122 to 124 °C; as for `O=C(O)c1csc(-c2ccccc2Cl)n1`, 192 to 194 °C; as for `O=C(O)c1cc(-c2ccccc2)nc2onc(C3CC3)c12`, 199 to 201 °C. `O=C(O)c1cccc2c3c([nH]c12)CCCCC3` returned a melting point of 225 to 227 °C. The figure for `NS(=O)(=O)c1ncccn1` is 173 to 175 °C; for `CN(C)c1nc(C=O)c(Cl)n1-c1ccc(Br)cc1` it is 115 to 117 °C; for `CC(Cl)c1nc2scc(-c3cccs3)c2c(=O)[nH]1` (configuration not stated) it is 241 to 243 °C.

The compound `COc1ccc(C=O)cc1C#N` registered a melting point of 119 to 121 °C.

Regarding `CCN(CC)S(=O)(=O)c1ccc(-c2ccc(C=O)o2)cc1`, the melting point was 119 to 121 °C.

With `O=C1NC(=O)C(c2ccc(Cl)cc2Cl)N1` (configuration not stated), the melting point is 179 to 181 °C.

Compound `Nc1ccccc1Oc1ccncc1` showed a melting point of 98 to 100 °C. As for `CSCCC1NC(=O)NC1=O` (configuration not stated), the figure is 108 to 110 °C; as for `CC(=O)Nc1ccc(S(=O)(=O)Cl)cc1[N+](=O)[O-]`, 89 to 91 °C; as for `CCC(=O)N1CCC(C(=O)O)C1` (configuration not stated), 118 to 120 °C. `Cc1nc(-c2ccccc2Br)sc1C(C)O` (configuration not stated) gave a melting point of 79 to 81 °C. As for `O=Cc1cn(-c2ccccc2)nc1-c1cccc(Br)c1`, the figure is 91 to 93 °C; as for `COc1cc(Cl)c(C)cc1NC(=O)CCl`, 167 to 169 °C.

Turning to `CN(C)c1ccc(N)c2cnccc12`, the melting point is 107 to 109 °C.

Compound `Cc1nn(C2CCS(=O)(=O)C2)c2ncc(C=O)cc12` (configuration not stated) had a melting point of 149 to 151 °C.

As for `Cc1n[nH]c(C)c1C(C)CC(=O)O` (configuration not stated), the melting point is 195 to 197 °C. Regarding `CC(C)(C(=O)O)n1cc([N+](=O)[O-])cn1`, the melting point fell in the range of 121 to 123 °C. The figure for `Cc1cccc(NC(=S)NN)c1C` is 170 to 172 °C; for `CC(C)(C)CC(=O)Nc1ccc(Cl)c(C(=O)O)c1` it is 214 to 216 °C. As for `Cc1c[nH]c(=O)n1-c1ccc(C#N)cc1`, the figure is 230 to 232 °C.

For the compound `NS(=O)(=O)c1ccc(C(=O)O)o1`, the melting point is 212 to 214 °C. As for `Cc1[nH]c(=O)[nH]c1C`, the figure is 239 to 241 °C; as for `NNC(=O)CC1CCS(=O)(=O)C1` (configuration not stated), 104 to 106 °C; as for `Cc1cncc(CCC(=O)O)c1`, 99 to 101 °C.

`COc1ccc(C(=O)NCC(=O)O)cc1OC` showed a melting point of 198 to 200 °C. `NC(=O)CC(F)(F)F` displayed a melting point of 101 to 103 °C.

`NNc1cn[nH]c(=O)c1Cl` registered a melting point of 171 to 173 °C.

Compound `O=[N+]([O-])c1ccc(S(=O)(=O)Cl)c(F)c1` registered a melting point of 72 to 74 °C. `NC(=O)c1ccccc1OCCO` yielded a melting point of 112 to 114 °C.

`Nc1ccccc1C(=O)Nc1ccc(Cl)cn1` had a melting point of 158 to 160 °C. Turning to `O=C(O)C1CCCCC1c1nc2ccccc2s1` (configuration not stated), the melting point is 168 to 170 °C. The compound `O=C(O)CSCc1nc2scc(-c3cccs3)c2c(=O)[nH]1` gave a melting point of 148 to 150 °C.

With `CCCOc1ccc(C=O)c(OCCC)c1`, the melting point lay within 58 to 60 °C. As for `CN(C1CCCCC1)S(=O)(=O)c1cccc(C(=O)O)c1`, the figure is 145 to 147 °C; as for `CC1CCc2c(sc(N)c2C#N)C1` (configuration not stated), 145 to 147 °C; as for `O=C(O)COc1ccccc1OCc1ccccc1`, 87 to 89 °C.

As to `COc1ccccc1CNc1ccc2[nH]c(=O)[nH]c2c1`, the melting point fell in the range of 216 to 218 °C. As for `Cc1ccc(C(=O)O)cc1OCc1csc(Br)c1`, the figure is 158 to 160 °C; as for `O=C1Cc2ccccc2C(=O)N1`, 190 to 192 °C. The figure for `Clc1cc(CBr)c2ncccc2c1` is 116 to 118 °C; for `O=C(c1cc(F)ccc1F)c1ccccc1Cl` it is 67 to 69 °C.

For `Nc1ccccc1CN1CCC(CO)CC1`, the melting point is 79 to 81 °C. Regarding `Cc1cccc(-c2nn(-c3ccccc3)cc2C(=O)O)c1`, the melting point was in the range of 146 to 148 °C. As for `OCc1ccc2c(c1)CCC2`, the figure is 69 to 71 °C; as for `CCc1c(C(=O)Nc2cc(S(=O)(=O)N(CC)CC)ccc2O)[nH]c(C)c1C(C)=O`, 229 to 231 °C; as for `NC(=S)Cc1nc2ccccc2s1`, 173 to 175 °C.

Compound `Cc1nc(-c2ccccn2)[nH]c(=O)c1CC(=O)O` had a melting point of 209 to 211 °C.

Consider `O=C(O)c1cccc(OC2CCCCC2)c1`, for which the melting point is 75 to 77 °C.

`O=C(O)CC1CCc2ccccc2C1` (configuration not stated) gave a melting point of 80 to 82 °C.

The compound `O=C(O)c1ccc(Cl)c(S(=O)(=O)N2CCCCC2)c1` came in with a melting point of 218 to 220 °C.

Turning to `CC(NC(=O)c1[nH]nc2ccccc12)C(=O)O` (configuration not stated), the melting point is 208 to 210 °C. As for `NC1CCc2[nH]ncc2C1` (configuration not stated), the figure is 168 to 170 °C.

`CC(C)(C)c1cc(N)n(C(C)(C)C)n1` registered a melting point of 69 to 71 °C. The figure for `O=C(O)CNC(=O)c1c(Cl)cccc1[N+](=O)[O-]` is 186 to 188 °C; for `O=C(O)C1CCCCN1C(=O)c1ccc(Br)c(F)c1` (configuration not stated) it is 134 to 136 °C. The figure for `O=C(O)CCNS(=O)(=O)c1ccc([N+](=O)[O-])cc1` is 150 to 152 °C; for `COC(=O)c1c[nH]c2ncccc12` it is 208 to 210 °C; for `O=C(O)CCc1csc2ccccc12` it is 140 to 142 °C. As for `FC(F)(F)Cc1nc2cc(Br)ccc2[nH]1`, the figure is 139 to 141 °C; as for `O=Cc1ccc(OCC(=O)O)c([N+](=O)[O-])c1`, 156 to 158 °C. With `NC(=O)c1nnn(-c2ccccc2)c1N`, the melting point fell in the range of 160 to 162 °C. Take `O=C(O)Cn1c(=O)[nH]c2ccccc2c1=O`: the melting point fell in the range of 295 to 297 °C. In turn, `CC(C)c1ccc(-c2nnc(N)s2)cc1` came in with a melting point of 205 to 207 °C. The figure for `Nc1cccc(OCc2cccnc2)c1` is 97 to 99 °C; for `CC(=O)CC(=O)Nc1ccccc1C(F)(F)F` it is 60 to 62 °C.

Compound `CC1CSc2ccc(Br)cc2C1=O` (configuration not stated) gave a melting point of 65 to 67 °C. For the compound `O=C(O)c1cn(C2CCCCC2)nn1`, the melting point is 163 to 165 °C.

The compound `N#Cc1cccc(C(=O)NCc2ccco2)c1` showed a melting point of 86 to 88 °C. The figure for `Cc1cc(Br)ccc1CC(=O)O` is 111 to 113 °C; for `N#Cc1ccc(CS(=O)(=O)NN)cc1` it is 142 to 144 °C. As for `O=C(O)c1ccn(-c2ccc(Cl)cc2Cl)n1`, the figure is 179 to 181 °C; as for `Cc1c(Cl)ccc2ccc(N)nc12`, 134 to 136 °C. As for `CC(C)(C)CNc1cccnc1`, the figure is 62 to 64 °C; as for `c1ccc(-c2csc(N3CCOCC3)n2)cc1`, 75 to 77 °C; as for `CC(C)Cn1ncc(C(=O)O)c1C(F)F`, 99 to 101 °C.

Turning to `N#Cc1cc(Br)ccc1N=C=O`, the melting point lay in the range of 97 to 99 °C. Consider `O=C(O)CCCNC(=O)c1cccnc1`, for which the melting point was in the range of 211 to 213 °C.

Turning to `O=C(O)Cn1ccc(=O)c2ccccc21`, the melting point is 274 to 276 °C. As for `CCOC(=O)CCOc1ccc(C(C)=O)cc1`, the figure is 55 to 57 °C; as for `CC(=O)Nc1ccc(OCC2CO2)cc1` (configuration not stated), 117 to 119 °C. With `Cc1cc(F)c(C(=O)CCl)cc1F`, the melting point was 93 to 95 °C. For `O=C1CN(Cc2ccnc(Cl)c2)CCN1`, the melting point is 143 to 145 °C. Consider `O=C(O)CNC1CCS(=O)(=O)C1` (configuration not stated), for which the melting point was in the range of 241 to 243 °C. The figure for `Cc1oncc1C(=O)NCC(=O)O` is 144 to 146 °C; for `Cc1cc(NC(=O)c2cccc(F)c2)sc1C(=O)O` it is 211 to 213 °C. Regarding `Cc1n[nH]c(C)c1CO`, the melting point was in the range of 178 to 180 °C. The figure for `CN(CCCC(=O)O)C1=NS(=O)(=O)c2ccccc21` is 159 to 161 °C; for `O=Cc1cccc(Cl)c1O` it is 52 to 54 °C. Consider `COCCCC(N)=S`, for which the melting point lay within 48 to 50 °C. As for `Cc1cn(-c2ccccc2Cl)nc1C(=O)O`, the figure is 209 to 211 °C; as for `O=C(O)c1cnc(-c2ccoc2)s1`, 226 to 228 °C.

For the compound `O=C(O)CSc1cccc(Br)c1`, the melting point is 79 to 81 °C.

For `O=[N+]([O-])c1c[nH]nc1-c1ccncc1`, the melting point fell in the range of 216 to 218 °C.

With `Cc1nnc(-c2cccc([N+](=O)[O-])c2)o1`, the melting point lay in the range of 158 to 160 °C. For `Cc1cnnc(N)n1`, the melting point was 174 to 176 °C. With `COC(=O)C(=O)CC(=O)c1ccc(C)cc1C`, the melting point lay in the range of 63 to 65 °C.

`NCc1cccc(NC(=O)N2CCCC2)c1` had a melting point of 128 to 130 °C. As for `NCCCN1CCC(C(N)=O)CC1`, the figure is 94 to 96 °C. Consider `CC(C)(C)c1nnc(N)o1`, for which the melting point was in the range of 226 to 228 °C. For the compound `CC1(c2ccccc2Br)NC(=O)NC1=O` (configuration not stated), the melting point was in the range of 219 to 221 °C. As for `Nc1ccc(Sc2ccccc2)c(Cl)c1`, the figure is 55 to 57 °C; as for `N=c1sccn1CC(=O)O`, 243 to 247 °C. The figure for `Nc1cccc(C(=O)Nc2cccc(F)c2)c1` is 123 to 125 °C.

For the compound `CCOC(=O)C(=O)c1ccc2c(c1)OCCO2`, the melting point was in the range of 65 to 67 °C. Regarding `O=S(=O)(c1ccc(Cl)c(Cl)c1)N1CCNCC1`, the melting point lay in the range of 125 to 127 °C.

`COC(=O)c1cc2ccccc2cc1N` displayed a melting point of 99 to 101 °C. As for `Nc1ccc(F)c(S(=O)(=O)Nc2ccc(Br)cc2)c1`, the figure is 161 to 163 °C; as for `Cc1ccc(C(=O)NCC(=O)O)s1`, 66 to 68 °C. `Cc1ccc(C(=O)O)cc1NC(=O)NC(C)(C)C` yielded a melting point of 336 to 338 °C. The compound `Cc1ccoc1C(=O)CC#N` returned a melting point of 93 to 95 °C. The compound `CC1CCC(NS(=O)(=O)CC(=O)O)CC1` (configuration not stated) had a melting point of 116 to 118 °C. The figure for `Cc1ccc(OCc2nc(CC(=O)O)cs2)cc1` is 145 to 147 °C; for `O=c1[nH]c(C(F)(F)F)cs1` it is 91 to 93 °C.
